From publication PMC5015447 (Biochemistry, 2016)
“And” between values parts separate entries of the source, which are not always exact repeats. Identical values can stand only once. Like-named read-outs stand apart in the source and are kept apart here.

Key:
[1] = target: E. coli cofactor-dependent phosphoglycerate mutase (dPGM) (Escherichia coli, UniProt P62707); assay: biochemical; type: binding
dPGM K99A [2] = target: T1, dPGM K99A (Escherichia coli, UniProt P62707, K100A); assay: Equilibrium unfolding of dPGM variant K99A with 1.0 mM ATP; type: binding, E. coli
dPGM K222A [3] = target: T2, dPGM K222A (Escherichia coli, UniProt P62707, K223A); assay: ATP binding by isothermal titration calorimetry, K222A; set-up: species or system E. coli
[4] = tested on: cofactor-dependent phosphoglycerate mutase (dPGM); conditions: cited from earlier work
S. cerevisiae dPGM = conditions: cited from earlier work
dPGM K99A [5] = target: T1, dPGM K99A; assay: ATP binding by isothermal titration calorimetry, K99A; set-up: species or system E. coli
dPGM R9A [6] = target: T3, dPGM R9A (Escherichia coli, UniProt P62707, R10A); assay: Equilibrium unfolding of dPGM variant R9A with 1.0 mM ATP; type: binding, E. coli
dPGM R115A [7] = target: T4, dPGM R115A (Escherichia coli, UniProt P62707, R116A); assay: Equilibrium unfolding of dPGM variant R115A with 1.0 mM ATP; type: binding, E. coli
dPGM R116A [8] = target: T5, dPGM R116A (Escherichia coli, UniProt P62707, R117A); assay: ATP binding by isothermal titration calorimetry, R116A; set-up: species or system E. coli
dPGM K222A [9] = target: T2, dPGM K222A; assay: Equilibrium unfolding of dPGM variant K222A; type: binding, E. coli
Wild-type dPGM = Wild-type dPGM (Escherichia coli, UniProt P62707); assay: ATP binding by isothermal titration calorimetry, wild-type dPGM; set-up: species or system E. coli
dPGM R115A [10] = target: T4, dPGM R115A; assay: ATP binding by isothermal titration calorimetry, R115A; set-up: species or system E. coli
dPGM R116A [11] = target: T5, dPGM R116A; assay: Equilibrium unfolding of dPGM variant R116A with 1.0 mM ATP; type: binding, E. coli
dPGM R9A [12] = target: T3, dPGM R9A; assay: ATP binding by isothermal titration calorimetry, R9A; set-up: species or system E. coli
[13] = ligand 1.0 mM, one global fit of all nucleotide data sets
[14] = 50 mM phosphate, global fit with no-ligand data
[15] = 50 mM phosphate, global fit with no-ligand data (shared m-value)

T3 sequence (P62707 whole entry R10A): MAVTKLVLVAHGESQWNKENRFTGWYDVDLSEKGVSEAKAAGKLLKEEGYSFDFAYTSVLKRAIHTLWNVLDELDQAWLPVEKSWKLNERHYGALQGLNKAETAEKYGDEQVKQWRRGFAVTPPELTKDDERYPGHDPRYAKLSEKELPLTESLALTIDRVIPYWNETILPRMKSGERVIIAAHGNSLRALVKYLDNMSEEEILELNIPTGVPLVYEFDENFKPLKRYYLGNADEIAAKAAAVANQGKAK
Chain of E. coli cofactor-dependent phosphoglycerate mutase (dPGM) (P62707 whole entry): as the sequence (P62707 whole entry R10A) above, with A10R counted along it
T4 sequence (P62707 whole entry R116A): as the sequence (P62707 whole entry R10A) above, with A10R, R116A counted along it
T2 sequence (P62707 whole entry K223A): as the sequence (P62707 whole entry R10A) above, with A10R, K223A counted along it
T1 sequence (P62707 whole entry K100A): as the sequence (P62707 whole entry R10A) above, with A10R, K100A counted along it
T5 sequence (P62707 whole entry R117A): as the sequence (P62707 whole entry R10A) above, with A10R, R117A counted along it
Chain of Wild-type dPGM (P62707 whole entry): as the sequence (P62707 whole entry R10A) above, with A10R counted along it

Nc1ncnc2c1ncn2[C@@H]1O[C@H](COP(=O)(O)OP(=O)(O)O)[C@@H](O)[C@H]1O [ADP, adenosine diphosphate]
Kd [1]: 18 ± 3 µM
effect on equilibrium unfolding (first unfolding transition) ([1]; ligand 1.0 mM): significantly shift the first unfolding transition to higher urea concentrations
ΔΔGI-N° = ΔGI-N°(ligand) – ΔGI-N°(no ligand) ([1]; ligand 1.0 mM): 4.8 (± 0.1) kcal/mol
ΔGI-N° [1, 13]: 16.4 (± 0.1) kcal/mol
ΔGU-I [1, 13]: 5.2 (± 0.2) kcal/mol

Nc1ncnc2c1ncn2[C@@H]1O[C@H](COP(=O)(O)O)[C@@H](O)[C@H]1O [AMP, adenosine monophosphate]
Kd ([1]; calculated with Eq. 6 from stability increase, ligand 1.0 mM): 240 ± 40 µM
effect on equilibrium unfolding (first unfolding transition) ([1]; ligand 1.0 mM): significantly shift the first unfolding transition to higher urea concentrations
ΔΔGI-N° = ΔGI-N°(ligand) – ΔGI-N°(no ligand) ([1]; ligand 1.0 mM): 1.96 (± 0.09) kcal/mol
ΔGI-N° [1, 13]: 13.6 (± 0.1) kcal/mol
ΔGU-I [1, 13]: 5.5 (± 0.2) kcal/mol

Nc1ncnc2c1ncn2[C@@H]1O[C@H](COP(=O)(O)OP(=O)(O)OP(=O)(O)O)[C@@H](O)[C@H]1O [ATP, adenosine triphosphate]
ΔGI-N° (dPGM K99A [2]): 18.5 ± 0.2 kcal/mol
ΔGU-I° (dPGM K99A [2]): 6 ± 1 kcal/mol
ΔΔGATP° = ΔGATP°(variant) – ΔGATP°(WT) (dPGM K99A [2]): –1.5 ± 0.2 kcal/mol
Kd (dPGM K222A [3]): 400 ± 100 nM
ΔΔGbind° = ΔGbind°(varient) – ΔGbind°(WT) (dPGM K222A [3]; K222A): –0.1 ± 0.2 kcal/mol
ΔGbind° (dPGM K222A [3]; K222A, calculated with Eq. 6 using [ATP] = 1.0 mM): 4.6 ± 0.1 kcal/mol
stabilization by pulse proteolysis with purified dPGM ([4]; 1.0 mM ATP): stabilization
stabilization in energetics-based proteome screen (S. cerevisiae dPGM): stabilizes
Kd (dPGM K99A [5]): 7 ± 2 µM
ΔΔGbind° = ΔGbind°(varient) – ΔGbind°(WT) (dPGM K99A [5]; K99A): –1.8 ± 0.2 kcal/mol
ΔGbind° (dPGM K99A [5]; K99A, calculated with Eq. 6 using [ATP] = 1.0 mM): 2.9 ± 0.2 kcal/mol
ΔGATP° = ΔGI-N°(1 mM ATP) - ΔGI-N°(No ATP) (dPGM R9A [6]): 4.2 ± 0.2 kcal/mol
ΔGI-N° (dPGM R9A [6]): 16.6 ± 0.2 kcal/mol
ΔGU-I° (dPGM R9A [6]): 6.3 ± 0.5 kcal/mol
ΔΔGATP° = ΔGATP°(variant) – ΔGATP°(WT) (dPGM R9A [6]): –1.4 ± 0.1 kcal/mol
ΔGATP° = ΔGI-N°(1 mM ATP) - ΔGI-N°(No ATP) (dPGM R115A [7]): 4.8 ± 0.4 kcal/mol
ΔGI-N° (dPGM R115A [7]): 19.4 ± 0.3 kcal/mol
ΔGU-I° (dPGM R115A [7]): 5 ± 1 kcal/mol
ΔΔGATP° = ΔGATP°(variant) – ΔGATP°(WT) (dPGM R115A [7]): –1.1 ± 0.2 kcal/mol
Kd [1]: 1.5 ± 0.5 µM
effective stability (ΔGeff) ([1]; 1.0 µM dPGM, 1.0 mM ATP, native conditions): 5.4 kcal/mol
Cm of the single apparent unfolding transition ([1]; 1.0 mM ATP): about 3.6 M urea
increase in stability per monomeric unit ([1]; 1.0 mM ATP): 3.5 kcal/mol
ΔG° of binding of ATP to the native dimer (N2) ([1]; 1.0 mM ATP, 2.5 M urea, per monomer): –3.5 kcal/mol
increase in ΔGI-N° (ΔGATP°) of wild type ([1]; 1.0 mM ATP, Table 1 fit): 7.0 ± 0.2 kcal/mol and 7.0 kcal/mol
maximum fraction of intermediate ([1]; 1.0 mM ATP, around 3.7 M urea): 0.12
effect on ΔGU-I° ([1]; 1.0 mM ATP, called insignificant): 0.6 kcal/mol
ΔGU-N° ([1]; 1.0 mM ATP, fluorescence): 30.5 ± 0.8 kcal/mol
ΔGI-N ([1]; 1.0 mM ATP, fluorescence, global fit with no-ATP data, 30 µg/mL dPGM, pH 8.0): 18.5 ± 0.2 kcal/mol
effective free energy change, I to N2•L2 ([1]; 2.5 M urea, 1.0 mM ATP, 1 µM dPGM): –2.4 kcal/mol per monomer
ΔGN-I° for reaction from I to N2•L2 ([1]; 2.5 M urea, 1.0 mM ATP, from Table 1 and Eq. 2): –12.5 kcal/mol
ΔΔGI-N° = ΔGI-N°(ligand) – ΔGI-N°(no ligand) ([1]; ligand 1.0 mM): 7.7 (± 0.2) kcal/mol
ΔGI-N° [1, 13]: 19.3 (± 0.2) kcal/mol
ΔGU-I [1, 13]: 5.0 (± 0.3) kcal/mol
Kd (dPGM R116A [8]): 1500 ± 300 nM
ΔΔGbind° = ΔGbind°(varient) – ΔGbind°(WT) (dPGM R116A [8]; R116A): –0.9 ± 0.2 kcal/mol
ΔGbind° (dPGM R116A [8]; R116A, calculated with Eq. 6 using [ATP] = 1.0 mM): 3.8 ± 0.1 kcal/mol
ΔGATP° = ΔGI-N°(1 mM ATP) - ΔGI-N°(No ATP) (dPGM K222A [9]): 9 ± 2 kcal/mol
ΔGI-N° (dPGM K222A [9]; 1.0 mM ATP): 21 ± 2 kcal/mol
ΔGU-I° (dPGM K222A [9]; 1.0 mM ATP): 4.4 ± 0.9 kcal/mol
ΔΔGATP° = ΔGATP°(variant) – ΔGATP°(WT) (dPGM K222A [9]; 1.0 mM ATP): 1.2 ± 1 kcal/mol
Kd (Wild-type dPGM): 320 ± 70 nM
ΔGbind° (Wild-type dPGM; WT, calculated with Eq. 6 using [ATP] = 1.0 mM): 4.7 ± 0.1 kcal/mol
Kd (dPGM R115A [10]): 7 ± 2 µM
ΔΔGbind° = ΔGbind°(varient) – ΔGbind°(WT) (dPGM R115A [10]; R115A): –1.8 ± 0.2 kcal/mol
ΔGbind° (dPGM R115A [10]; R115A, calculated with Eq. 6 using [ATP] = 1.0 mM): 2.9 ± 0.2 kcal/mol
ΔGATP° = ΔGI-N°(1 mM ATP) - ΔGI-N°(No ATP) (dPGM R116A [11]): 5.4 ± 0.2 kcal/mol
ΔGI-N° (dPGM R116A [11]): 18.1 ± 0.2 kcal/mol
ΔGU-I° (dPGM R116A [11]): 5.8 ± 0.4 kcal/mol
ΔΔGATP° = ΔGATP°(variant) – ΔGATP°(WT) (dPGM R116A [11]): –0.8 ± 0.1 kcal/mol
Kd (dPGM R9A [12]): 5.5 ± 0.5 µM
ΔΔGbind° = ΔGbind°(varient) – ΔGbind°(WT) (dPGM R9A [12]; R9A): –1.7 ± 0.1 kcal/mol
ΔGbind° (dPGM R9A [12]; R9A, calculated with Eq. 6 using [ATP] = 1.0 mM): 3.1 ± 0.05 kcal/mol

Nc1ncnc2c1ncn2[C@@H]1O[C@H](CO[P@](=O)(O)O[P@](=O)(O)O[P@@](=O)(O)S)[C@@H](O)[C@H]1O [ATPγS]
protein remaining intact after pulse proteolysis ([4]; E. coli lysate, 2.0 M urea, 1.0 mM ATPγS): a significant population of the protein remained intact

Nc1ncnc2c1ncn2[C@@H]1O[C@H](CO)[C@@H](O)[C@H]1O [Adenosine, adenosine]
effect on equilibrium unfolding (first unfolding transition) ([1]; ligand 1.0 mM): negligible
ΔΔGI-N° = ΔGI-N°(ligand) – ΔGI-N°(no ligand) ([1]; ligand 1.0 mM): 0.09 (± 0.07) kcal/mol
ΔGI-N° [1, 13]: 11.7 (± 0.1) kcal/mol
ΔGU-I [1, 13]: 5.6 (± 0.2) kcal/mol

Nc1nc2c(ncn2[C@@H]2O[C@H](COP(=O)(O)OP(=O)(O)OP(=O)(O)O)[C@@H](O)[C@H]2O)c(=O)[nH]1 [GTP, guanosine triphosphate]
Kd [1]: 0.4 ± 0.5 µM
effect on equilibrium unfolding (first unfolding transition) ([1]; ligand 1.0 mM): significantly shift the first unfolding transition to higher urea concentrations
ΔΔGI-N° = ΔGI-N°(ligand) – ΔGI-N°(no ligand) ([1]; ligand 1.0 mM): 9.3 (± 0.8) kcal/mol
ΔGI-N° [1, 13]: 20.9 (± 0.8) kcal/mol
ΔGU-I [1, 13]: 4.3 (± 0.6) kcal/mol

O=P(O)(O)OP(=O)(O)O [Pyrophosphate]
Kd [1]: 1.2 ± 0.2 µM
mI-N [1]: 2.47 (± 0.04) kcal mol^−1M^−1
mU-I [1]: 1.62 (± 0.09) kcal mol^−1M^−1
ΔGI-N° [1]: 16.8 (± 0.1) kcal/mol
ΔGU-I [1]: 5.2 (± 0.3) kcal/mol
ΔΔGI-N° [1]: 5.3 (± 0.1) kcal/mol

phosphate
ΔΔGI-N° ([1]; 50 mM phosphate): 5.9 (± 0.1) kcal/mol
ΔGI-N° [1, 14]: 17.3 (± 0.1) kcal/mol
ΔGU-I [1, 14]: 5.6 (± 0.3) kcal/mol
mI-N [1, 15]: 2.36 (± 0.03) kcal mol^−1M^−1
mU-I [1, 15]: 1.82 (± 0.08) kcal mol^−1M^−1
Kd ([1]; calculated with Eq. 6, 50 mM phosphate): 350 ± 60 µM
